These results are taken from ChEMBL document CHEMBL1649420, “Identifying chelators for metalloprotein inhibitors using a fragment-based approach” (J Med Chem, 2011).

Experiment [1] deals with T1, Tyrosinase (Agaricus bisporus) (UniProt O42713).
T1 sequence (whole entry): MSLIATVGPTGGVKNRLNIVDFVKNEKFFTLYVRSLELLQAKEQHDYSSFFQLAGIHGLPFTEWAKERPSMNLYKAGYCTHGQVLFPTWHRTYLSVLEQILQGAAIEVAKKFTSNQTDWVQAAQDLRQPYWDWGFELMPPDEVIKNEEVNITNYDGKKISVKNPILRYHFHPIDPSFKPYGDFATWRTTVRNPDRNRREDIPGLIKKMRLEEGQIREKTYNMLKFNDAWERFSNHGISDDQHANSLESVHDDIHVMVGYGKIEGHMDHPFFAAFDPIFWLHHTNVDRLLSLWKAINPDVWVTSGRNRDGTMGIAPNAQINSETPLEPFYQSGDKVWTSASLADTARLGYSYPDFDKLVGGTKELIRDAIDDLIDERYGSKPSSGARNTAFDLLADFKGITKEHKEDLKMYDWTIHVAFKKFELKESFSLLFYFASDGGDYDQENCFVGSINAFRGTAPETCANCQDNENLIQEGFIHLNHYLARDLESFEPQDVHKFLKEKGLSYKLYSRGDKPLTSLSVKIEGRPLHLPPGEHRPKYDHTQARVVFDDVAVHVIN
The settings on record: at 1 mM.

The target in experiment [2] is Stromelysin-1 (Homo sapiens) (UniProt P08254). The settings on record: at 1 mM.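 Note: recombinant enzyme, inhibition read after a 30 min incubation.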
Experiment [3] deals with Matrix metalloproteinase-9 (Homo sapiens) (UniProt P14780). The settings on record: at 1 mM.
For experiment [4], the target named is Neutrophil collagenase (Homo sapiens) (UniProt P22894). The settings on record: at 1 mM.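 Note: recombinant human MMP8 enzyme, percent inhibition read after 30 min.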
Experiment [5] concerns the target T2, Lethal factor (Bacillus anthracis) (UniProt P15917).
T2 sequence (whole entry): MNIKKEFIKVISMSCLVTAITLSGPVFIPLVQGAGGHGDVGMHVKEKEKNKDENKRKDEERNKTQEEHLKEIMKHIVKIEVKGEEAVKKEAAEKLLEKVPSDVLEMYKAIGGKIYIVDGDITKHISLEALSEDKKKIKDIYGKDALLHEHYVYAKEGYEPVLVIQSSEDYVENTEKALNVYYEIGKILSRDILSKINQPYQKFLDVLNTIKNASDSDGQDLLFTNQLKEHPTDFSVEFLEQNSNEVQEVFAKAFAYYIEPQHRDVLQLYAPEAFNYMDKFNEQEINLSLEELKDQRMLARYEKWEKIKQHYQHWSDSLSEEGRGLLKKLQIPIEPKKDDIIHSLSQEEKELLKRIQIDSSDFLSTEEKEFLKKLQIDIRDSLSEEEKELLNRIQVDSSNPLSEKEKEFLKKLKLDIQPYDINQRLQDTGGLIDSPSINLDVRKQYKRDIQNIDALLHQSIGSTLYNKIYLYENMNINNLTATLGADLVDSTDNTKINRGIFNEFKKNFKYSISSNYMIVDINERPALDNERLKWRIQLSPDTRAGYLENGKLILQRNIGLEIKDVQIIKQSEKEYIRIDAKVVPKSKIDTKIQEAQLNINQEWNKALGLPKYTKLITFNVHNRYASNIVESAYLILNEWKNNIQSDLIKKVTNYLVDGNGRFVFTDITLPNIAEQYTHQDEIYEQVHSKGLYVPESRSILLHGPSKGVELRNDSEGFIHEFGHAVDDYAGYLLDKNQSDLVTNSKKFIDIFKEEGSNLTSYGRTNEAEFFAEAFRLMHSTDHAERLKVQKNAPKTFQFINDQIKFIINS
As to conditions: at 1 mM.

Experiment [6] has as its target T3, Nitric oxide synthase, inducible (Mus musculus) (UniProt P29477).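 Note: recombinant enzyme, activity read out colorimetrically after 40 min.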
T3 sequence (whole entry): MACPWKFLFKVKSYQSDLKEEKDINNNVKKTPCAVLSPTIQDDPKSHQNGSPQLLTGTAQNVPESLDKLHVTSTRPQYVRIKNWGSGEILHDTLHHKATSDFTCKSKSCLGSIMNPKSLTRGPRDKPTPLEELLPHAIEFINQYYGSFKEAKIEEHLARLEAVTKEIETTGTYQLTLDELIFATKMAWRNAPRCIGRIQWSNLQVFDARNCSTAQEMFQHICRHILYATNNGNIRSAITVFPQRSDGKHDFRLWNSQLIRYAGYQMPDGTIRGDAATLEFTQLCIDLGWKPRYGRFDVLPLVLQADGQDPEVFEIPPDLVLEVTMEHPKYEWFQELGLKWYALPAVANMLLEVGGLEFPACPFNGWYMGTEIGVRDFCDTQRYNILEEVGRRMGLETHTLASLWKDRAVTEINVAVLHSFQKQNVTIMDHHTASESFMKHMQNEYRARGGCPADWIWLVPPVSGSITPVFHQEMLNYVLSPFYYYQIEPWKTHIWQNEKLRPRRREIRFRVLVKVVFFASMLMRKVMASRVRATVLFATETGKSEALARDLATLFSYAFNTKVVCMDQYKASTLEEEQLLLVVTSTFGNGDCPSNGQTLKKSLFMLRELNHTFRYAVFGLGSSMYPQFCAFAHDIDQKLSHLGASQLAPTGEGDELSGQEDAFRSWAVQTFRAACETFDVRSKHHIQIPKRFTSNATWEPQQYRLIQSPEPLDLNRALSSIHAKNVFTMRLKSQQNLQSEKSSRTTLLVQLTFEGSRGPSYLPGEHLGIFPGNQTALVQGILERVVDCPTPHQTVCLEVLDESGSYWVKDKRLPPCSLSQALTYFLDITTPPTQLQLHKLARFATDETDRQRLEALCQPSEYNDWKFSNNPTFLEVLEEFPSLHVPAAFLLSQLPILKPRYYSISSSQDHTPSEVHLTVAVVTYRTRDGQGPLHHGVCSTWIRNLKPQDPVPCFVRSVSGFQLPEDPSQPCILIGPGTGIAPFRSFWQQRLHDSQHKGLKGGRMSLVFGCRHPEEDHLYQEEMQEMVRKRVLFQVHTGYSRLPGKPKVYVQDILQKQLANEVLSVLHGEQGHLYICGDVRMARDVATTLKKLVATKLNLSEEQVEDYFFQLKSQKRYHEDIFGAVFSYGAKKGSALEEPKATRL
As to conditions: at 1 mM.

Experiment [7] addresses T4, Interstitial collagenase (Homo sapiens) (UniProt P03956).
T4 sequence (whole entry): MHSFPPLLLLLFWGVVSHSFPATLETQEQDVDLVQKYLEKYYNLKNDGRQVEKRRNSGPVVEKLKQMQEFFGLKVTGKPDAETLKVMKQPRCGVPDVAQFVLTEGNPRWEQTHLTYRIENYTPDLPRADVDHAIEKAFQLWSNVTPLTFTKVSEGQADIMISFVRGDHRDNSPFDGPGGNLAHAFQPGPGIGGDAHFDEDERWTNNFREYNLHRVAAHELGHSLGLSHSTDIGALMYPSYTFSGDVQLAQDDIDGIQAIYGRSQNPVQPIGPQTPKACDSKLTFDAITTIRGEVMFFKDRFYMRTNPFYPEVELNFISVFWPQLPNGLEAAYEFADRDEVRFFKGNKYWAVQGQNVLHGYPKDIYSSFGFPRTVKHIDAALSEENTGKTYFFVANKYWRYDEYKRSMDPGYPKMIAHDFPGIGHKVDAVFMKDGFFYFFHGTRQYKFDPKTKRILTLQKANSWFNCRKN
The settings on record: at 1 mM.

The target in experiment [8] is 72 kDa type IV collagenase (Homo sapiens, UniProt P08253). The settings on record: at 1 mM.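 Note: recombinant human enzyme, inhibition read after a 30 min incubation.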
Experiment [9] concerns the target T5, Polyunsaturated fatty acid 5-lipoxygenase (Homo sapiens) (UniProt P09917).
T5 sequence (whole entry): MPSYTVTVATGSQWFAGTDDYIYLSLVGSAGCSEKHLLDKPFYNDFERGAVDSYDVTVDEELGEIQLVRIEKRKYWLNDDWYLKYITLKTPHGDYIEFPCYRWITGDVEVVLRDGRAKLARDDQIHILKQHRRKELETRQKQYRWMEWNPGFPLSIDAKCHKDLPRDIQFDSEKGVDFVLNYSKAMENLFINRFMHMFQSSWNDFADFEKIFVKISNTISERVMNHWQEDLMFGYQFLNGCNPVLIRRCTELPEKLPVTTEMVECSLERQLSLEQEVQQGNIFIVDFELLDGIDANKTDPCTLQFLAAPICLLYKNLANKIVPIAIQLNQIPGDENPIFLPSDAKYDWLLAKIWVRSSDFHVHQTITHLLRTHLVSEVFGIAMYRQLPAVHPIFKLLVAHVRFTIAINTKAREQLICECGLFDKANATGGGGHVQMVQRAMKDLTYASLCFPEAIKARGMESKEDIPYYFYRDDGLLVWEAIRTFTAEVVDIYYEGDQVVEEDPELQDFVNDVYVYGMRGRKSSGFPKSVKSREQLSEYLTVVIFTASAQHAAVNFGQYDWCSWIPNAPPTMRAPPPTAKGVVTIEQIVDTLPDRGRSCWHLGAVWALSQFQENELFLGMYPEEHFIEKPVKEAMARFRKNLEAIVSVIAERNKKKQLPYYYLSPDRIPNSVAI
Description: Inhibition of human recombinant 5-lipoxygenase at 1 mM after 10 mins by fluorescence assay.

Neutrophil collagenase (Homo sapiens), sequence (P22894 101-467 limits assumed): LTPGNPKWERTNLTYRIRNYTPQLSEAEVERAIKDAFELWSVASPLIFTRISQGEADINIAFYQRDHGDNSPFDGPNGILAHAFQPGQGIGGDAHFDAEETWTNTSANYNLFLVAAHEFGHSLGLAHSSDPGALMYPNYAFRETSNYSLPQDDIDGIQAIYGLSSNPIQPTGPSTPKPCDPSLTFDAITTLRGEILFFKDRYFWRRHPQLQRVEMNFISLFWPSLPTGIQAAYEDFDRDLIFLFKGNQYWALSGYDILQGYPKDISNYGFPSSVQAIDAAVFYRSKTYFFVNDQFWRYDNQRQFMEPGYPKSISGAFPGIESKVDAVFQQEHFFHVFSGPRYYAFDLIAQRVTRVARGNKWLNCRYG
72 kDa type IV collagenase, sequence (P08253 110-660 limits assumed): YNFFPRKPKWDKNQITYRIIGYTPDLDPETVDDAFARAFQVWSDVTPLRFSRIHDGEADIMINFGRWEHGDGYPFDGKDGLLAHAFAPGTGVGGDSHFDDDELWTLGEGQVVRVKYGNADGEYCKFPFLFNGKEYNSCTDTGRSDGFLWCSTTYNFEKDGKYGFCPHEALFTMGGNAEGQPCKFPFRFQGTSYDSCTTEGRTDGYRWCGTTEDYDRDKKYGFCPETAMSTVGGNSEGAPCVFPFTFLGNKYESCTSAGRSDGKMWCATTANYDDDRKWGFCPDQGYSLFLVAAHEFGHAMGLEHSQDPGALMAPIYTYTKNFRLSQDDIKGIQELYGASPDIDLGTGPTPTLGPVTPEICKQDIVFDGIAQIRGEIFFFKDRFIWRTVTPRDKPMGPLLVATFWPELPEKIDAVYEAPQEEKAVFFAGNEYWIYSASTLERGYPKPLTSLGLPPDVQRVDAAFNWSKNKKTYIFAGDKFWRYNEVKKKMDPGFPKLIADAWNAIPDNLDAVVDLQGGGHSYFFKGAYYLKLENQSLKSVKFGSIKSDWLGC
Matrix metalloproteinase-9 (Homo sapiens), sequence (P14780 whole entry): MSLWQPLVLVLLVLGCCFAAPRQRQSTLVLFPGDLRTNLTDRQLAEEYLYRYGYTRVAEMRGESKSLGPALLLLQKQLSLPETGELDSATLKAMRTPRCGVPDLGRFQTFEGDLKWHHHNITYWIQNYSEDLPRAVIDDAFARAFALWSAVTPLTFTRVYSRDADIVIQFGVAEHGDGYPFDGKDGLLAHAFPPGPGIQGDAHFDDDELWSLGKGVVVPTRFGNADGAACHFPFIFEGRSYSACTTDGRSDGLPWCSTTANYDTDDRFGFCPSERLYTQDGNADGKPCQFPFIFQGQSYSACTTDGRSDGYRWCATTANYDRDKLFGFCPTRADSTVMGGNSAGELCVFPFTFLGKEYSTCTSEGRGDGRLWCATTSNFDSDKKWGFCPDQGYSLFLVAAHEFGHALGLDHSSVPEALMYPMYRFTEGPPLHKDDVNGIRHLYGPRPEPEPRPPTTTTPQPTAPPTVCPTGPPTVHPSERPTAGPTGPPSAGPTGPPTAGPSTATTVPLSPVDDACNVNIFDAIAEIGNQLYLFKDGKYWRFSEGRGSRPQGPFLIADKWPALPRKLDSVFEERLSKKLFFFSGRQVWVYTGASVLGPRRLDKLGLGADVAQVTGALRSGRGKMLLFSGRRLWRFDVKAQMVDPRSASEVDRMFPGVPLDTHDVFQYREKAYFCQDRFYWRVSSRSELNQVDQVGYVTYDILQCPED
Stromelysin-1 (Homo sapiens), sequence (P08254 100-477 limits assumed): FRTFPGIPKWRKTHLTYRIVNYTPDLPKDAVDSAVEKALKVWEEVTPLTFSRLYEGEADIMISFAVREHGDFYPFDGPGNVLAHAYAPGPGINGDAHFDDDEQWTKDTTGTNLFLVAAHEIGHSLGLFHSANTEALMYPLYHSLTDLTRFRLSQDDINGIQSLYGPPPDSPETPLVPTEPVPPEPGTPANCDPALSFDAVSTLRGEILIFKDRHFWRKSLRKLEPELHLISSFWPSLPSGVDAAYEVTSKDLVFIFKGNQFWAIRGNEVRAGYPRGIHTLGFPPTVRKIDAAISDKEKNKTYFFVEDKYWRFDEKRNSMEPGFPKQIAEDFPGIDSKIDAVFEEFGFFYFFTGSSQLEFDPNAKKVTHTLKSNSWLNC

As to `CCc1occc(=O)c1O`, the inhibition in [1] was -7%; in experiment [2], 38%; in experiment [3] it was 28%; in experiment [4], 34%; in experiment [5], 25%; in experiment [6] it was 8%. Also, the inhibition in [7] came out at 39%; in [8] it was 33%.
`Cc1occc(=O)c1O`: the inhibition in experiment [1] is -6%; in experiment [2] it was 34%; in [3], 32%; in experiment [4] it was 19%; in [5], 19%; in experiment [6], 6%. The inhibition in experiment [7] worked out at 41%; in [8], 38%.
`O=C(O)c1ccc(O)cc1O`: the inhibition was 91% in [1]; 3% in experiment [2]; -8% in [3]; -1% in experiment [4]; 7% in [5]; 16% in experiment [6]. Also, the inhibition in experiment [7] was 14%; in [8], -7%.
On to `O=C(O)c1ccc2cccc(O)c2n1`, for which the inhibition in [1] is 75%; in experiment [2], 94%; in experiment [3], 68%; in [4], 88%; in experiment [5] it was 89%; in experiment [6], 29%. Moreover, the values for the inhibition in [7] and in [8] were 82% and 84%, respectively.
For `Cc1cc(=O)c(O)c(CO)o1`, the inhibition was 11% in experiment [1]; 47% in [2]; 44% in experiment [3]; 53% in experiment [4]; 14% in experiment [5]; 9% in experiment [6]. The inhibition worked out at 60% in experiment [7] and 45% in [8].
Regarding `O=C(O)c1ccc2ccccc2n1`, the inhibition in experiment [1] was determined as 58%; in experiment [2] it was 73%; in experiment [3], 37%; in experiment [4], 29%; in experiment [5], 45%; in experiment [6], 11%. Further, the inhibition stood at 52% in experiment [7] and 37% in experiment [8].
As to `O=C(O)c1cccc(=O)n1O`, the inhibition in experiment [1] was 94%; in experiment [2], 86%; in [3], 66%; in experiment [4], 89%; in [5] it was 47%; in experiment [6] it was -5%. In addition, the inhibition was 84% in [7] and 60% in experiment [8].
With `O=c1ccc2ccccc2[nH]1`, the inhibition in experiment [1] worked out at 5%; in [2], 3%; in experiment [3], 5%; in [4], 33%; in experiment [5] it was 36%; in experiment [9], 22%. The results for the inhibition in experiment [7] and in [8] were 20% and 5%, respectively.
Regarding `Cn1cccc(O)c1=S`, the inhibition in experiment [1] worked out at 93%; in experiment [2], 90%; in experiment [3] it was 96%; in experiment [4] it was 96%; in [5], 56%; in experiment [9], 93%. In addition, the inhibition in experiment [7] came out at 89%; in [8] it was 100%.
With `Cc1cc(=O)[nH]c(=S)[nH]1`, the inhibition in experiment [1] turned out to be 31%; in experiment [2] it was 37%; in [3], 27%; in experiment [4], 31%; in experiment [5], 29%; in experiment [9], 70%. Moreover, the results for the inhibition in experiment [7] and in experiment [8] were 40% and 26%, respectively.
Regarding `Oc1cc(O)nc(S)n1`, the inhibition in [1] was 99%; in experiment [2], 38%; in [3], 15%; in experiment [4], 25%; in experiment [5], 18%; in [9], 72%. For the same molecule, the values for the inhibition in experiment [7] and in experiment [8] were 30% and 17%, respectively.

The inhibition is the relative decrease from the control value, in per cent.
